Measured values from publication PMC9916778 (International Journal of Molecular Sciences, 2023).
Where two headings read alike, the source gives them in different places.

Assays:
[1] = tested on: PC-3 prostate adenocarcinoma cells; assay: In vitro cytotoxicity (MTT assay), PC-3; format: cell-based, human; details: ± standard deviation, triplicate
Description: (§1) The testing was performed on the ovarian carcinoma (A2780), Cisplatin-resistant ovarian carcinoma (A2780R), prostate adenocarcinoma (PC-3), prostate carcinoma (22Rv1), and leukemia monocytic (THP-1) and intestinal colon adenocarcinoma (LS180) human cell lines that were obtained from the ATCC collection of cell lines and cultivated according to the producer’s instructions. The reference normal cell line of human fetal fibroblasts (MRC-5) was obtained from the same commercial source and maintained according to the producer’s instructions. The half-maximal inhibitory concentrations (IC50) were calculated from dose–response curves by means of the GraphPad Prism 6 software (GraphPad Software, San Diego, CA, USA).

[2] = tested on: NF-κB; assay: NF-κB activity in LPS-challenged cells (SEAP reporter); format: cell-based, human; details: 100 nM, 1 h pre-treatment, LPS 24 h, THP1-Blue NF-κB monocytes
Description: The effect of the tested compounds to influence the function of transcription factor NF-κB was determined on lipopolysaccharide (LPS)-challenged THP1-Blue™ NF-κB cells as we described previously. […] After 24 h incubation, the activity of NF-κB was determined as the amount of secreted embryonic alkaline phosphatase using Quanti-Blue™ medium (Invivogen).

[3] = tested on: A2780 cells; assay: Cell cycle analysis (flow cytometry); format: cell-based, human; details: A2780, half-cytotoxic concentration, 24 h
Description: After 24 h, the cells were treated with a 4 µM solution of complex (1) and cultivated for the next 24 h. Then, the cells were washed once with PBS (0.1 M, pH 7.4), and cell cycle analysis was performed using a BD Cycletest^TM Plus DNA kit (Becton Dickinson, Franklin Lakes, NJ, USA) according to the manufacturer’s protocol. The data were acquired using a BD FACSVerse flow cytometer (Becton Dickinson, USA) in three independent experiments, each performed in duplicate, while at least 5 × 10^3 events were recorded for each sample.

[4] = tested on: A2780 cells; assay: Time-dependent cellular uptake of gold (ICP-MS); format: in vitro ADME, human
Description: Figure 3 The intracellular gold concentration levels caused by the incubation of [Au(kin)(PPh3)] (1), [Au(PPh3)Cl], and Auranofin with A2780 cells after 2 h, 6 h, 12 h, 24 h, 48 h, and 72 h. The results were obtained by ICP-MS analyses of three parallel samples and are shown as mean values with error bars corresponding to the standard deviation values of the gold concentration expressed in ng of gold per 10^6 cells. TEXT PRINTED IN THE PICTURE: [Au(kin)PPh3] (1): Intracellular Au content [ng/10^6 cells]: 121.3; Intracellular Au content [ng/10^6 cells]: 97.1; Intracellular Au content [ng/10^6 cells]: 88.8; Intracellular Au content [ng/10^6 cells]: 89.4; Intracellular Au content [ng/10^6 cells]: 287.5; Intracellular Au content [ng/10^6 cells]: 352.9 | Auranofin: Intracellular Au content [ng/10^6 cells]: 182.5; Intracellular Au content [ng/10^6 cells]: 231.1; Intracellular Au content [ng/10^6 cells]: 361.3; Intracellular Au content [ng/10^6 cells]: 333.9; Intracellular Au content [ng/10^6 cells]: 555.3; Intracellular Au content [ng/10^6 cells]: 320.2 | [Au(PPh3)Cl]: Intracellular Au content [ng/10^6 cells]: 84.6; Intracellular Au content [ng/10^6 cells]: 106.1; Intracellular Au content [ng/10^6 cells]: 80.7; Intracellular Au content [ng/10^6 cells]: 97.6; Intracellular Au content [ng/10^6 cells]: 304.2; Intracellular Au content [ng/10^6 cells]: 415.8 DOUBTS OF THE COPYIST ABOUT THIS PICTURE: Point labels are black, not coloured by series. Where the [Au(kin)PPh3] (1) and [Au(PPh3)Cl] curves run close together, I assigned the labels by their position above or below the points: 97.1/106.1, 88.8/80.7, 89.4/97.6 and 287.5/304.2. These assignments are not fully certain. / No incubation time is printed beside any point label, only on the axis, so no time condition is given with the values.

[5] = tested on: THP1-Blue™ NF-κB cells; assay: Cell viability, CCK-8, serum-free medium; format: cell-based, human
Description: The cells were cultivated in RPMI (Roswell Park Memorial Institute) 1640 medium (Biosera; Nuaille, France) supplemented with 10% fetal bovine serum (FBS) and antibiotics (100 U/mL penicillin and […] streptomycin) (both from Merck). All further experiments were performed in serum-free medium. The effect of the test compounds dissolved in DMF on cell viability after 24 h incubation was determined using a Cell Counting Kit-8 (CCK-8; Merck) according to the manufacturer’s instructions, similarly as previously described.

[6] = tested on: A2780R Cisplatin-resistant ovarian carcinoma cells; assay: In vitro cytotoxicity (MTT assay), A2780R; format: cell-based, human; details: ± standard deviation, triplicate
Description: as §1

[7] = tested on: A2780 cells; assay: Induction of autophagy (CYTO-ID kit); format: cell-based, human; details: A2780, half-cytotoxic concentration, 24 h
Description: The induction of autophagy by complex (1) was studied using a CYTO-ID® Autophagy Detection Kit 2.0 (ENZO, New York, NY, USA) according to the manufacturer’s protocol. Briefly, the A2780 cells were seeded in a 24-well cell culture plate at 5 × 10^4 cells per well and cultivated for 24 h. The next day, the cells were treated with complex (1) at 4 µM. […] Then, the cells were stained with CYTO-ID® Green stain solution and incubated for 30 min in the dark. After the final wash with PBS, the cell suspensions were analyzed using the BD FACSVerse flow cytometer (Becton Dickinson, USA) in three separate experiments, while at least 10^4 events were recorded for each sample prepared in duplicates. The cells incubated with the mixture of chloroquine (10 µM) and rapamycin (0.5 µM) for 18 h were used as a positive control.

[8] = tested on: A2780 cells; assay: Mitochondrial membrane potential analysis (MITO-ID); format: cell-based, human; details: A2780, half-cytotoxic concentration, 24 h
Description: The A2780 cells were seeded in 24-well cell culture plates at 5 × 10^4 cells/well and cultivated for 24 h. The next day, the complex (1) was added to a final concentration of 4 µM, and the cells were incubated for another 24 h. […] The cells were then isolated by centrifugation and resuspended in a staining solution prepared according to the manufacturer’s protocol from a MITO-ID® Membrane Potential Detection kit (Enzo Life Sciences, USA). Finally, the cells were analyzed using a BD FACSVerse flow cytometer (Becton Dickinson, USA). The control was carried out by treatment with 2 µM carbonyl cyanide 3-chlorophenylhydrazone (CCCP). Three independent experiments were conducted, each in duplicate.

Compound	IC50 [1]	Effect on LPS-stimulated NF-κB activity [2]	Population of cells in G2/M phase [3]	Population of cells in S phase [3]	Number of cells in the G0/G1 phase ([3]; vs untreated control)	Excess of intracellular gold level over [Au(kin)(PPh3)] and [Au(PPh3)Cl] ([4]; A2780 cells, after 12 h of incubation)	IC50 ([5]; THP1-Blue NF-κB cells, serum-free medium, 24 h treatment, CCK-8, read-out: IC50 ± SEM, cytotoxic effect)	IC50 [6]	Induction of autophagy [7]	Cells with loss of mitochondrial membrane potential [8]	Effect on the cell cycle [3]	Intracellular Au content, 2 h [4]	Intracellular Au content, 6 h [4]	Intracellular Au content, 12 h [4]	Intracellular Au content, 24 h [4]	Intracellular Au content, 48 h [4]	Intracellular Au content, 72 h [4]	IC50 [5]	Damage to mitochondrial membranes [8]
CC[PH](CC)(CC)[Au][S][C@@H]1O[C@H](COC(C)=O)[C@@H](OC(C)=O)[C@H](OC(C)=O)[C@H]1OC(C)=O [Auranofin, [3,4,5-triacetyloxy-6-(acetyloxymethyl)-oxane-2-thiolate-(triethylphosphine)gold(I)]]	3.7 ± 0.7 µM	the only gold(I) complex able to inhibit the activity of pro-inflammatory transcription factor NF-κB	23.3 ± 3.6%	19.4 ± 0.5%	significant decrease in the number of cells in the G0/G1 phase	up to 4 times	0.5 ± 1.1 µM	3.4 ± 0.6 µM	not shown to cause metabolic stress strong enough to induce the autophagy	more than 80%	–	–	–	–	–	–	–	–	–
[Cl][Au].c1ccc(P(c2ccccc2)c2ccccc2)cc1 [[Au(PPh3)Cl]]	9.9 ± 0.4 µM	possessed some activity	–	–	–	–	–	5.2 ± 0.2 µM	significantly induced the autophagy	–	practically no effect on the cell cycle	84.6 ng/10^6 cells	106.1 ng/10^6 cells	80.7 ng/10^6 cells	97.6 ng/10^6 cells	304.2 ng/10^6 cells	415.8 ng/10^6 cells	1.1 ± 1.1 µM	Significant changes in mitochondrial membrane permeability
